Measured values reported in patent US20060148030A1, “Nuclear receptor err y 3” (FUJISAWA PHARMACEUTICAL CO., LTD, priority 2002, published 2006).

T1: ERRγ1 (Homo sapiens, UniProt P62508)
T1 sequence (P62508 1-435 isoform P62508-2): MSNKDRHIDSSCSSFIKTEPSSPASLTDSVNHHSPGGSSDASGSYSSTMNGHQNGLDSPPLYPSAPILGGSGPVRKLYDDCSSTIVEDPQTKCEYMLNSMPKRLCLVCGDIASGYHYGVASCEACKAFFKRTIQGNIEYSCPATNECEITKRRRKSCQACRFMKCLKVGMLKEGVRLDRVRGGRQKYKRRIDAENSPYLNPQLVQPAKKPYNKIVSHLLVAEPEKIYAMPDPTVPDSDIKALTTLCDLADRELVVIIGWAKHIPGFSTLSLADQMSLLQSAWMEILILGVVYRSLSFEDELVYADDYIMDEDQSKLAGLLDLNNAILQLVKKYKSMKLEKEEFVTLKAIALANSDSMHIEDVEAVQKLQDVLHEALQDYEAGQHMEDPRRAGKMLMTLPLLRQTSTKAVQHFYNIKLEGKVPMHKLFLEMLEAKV

T2: PPARγ (Homo sapiens, UniProt P37231)
T2 construct: expressed in transfected cells; host or cells: CV-1 (African green monkey kidney)
T2 sequence (P37231 1-477 isoform P37231-2): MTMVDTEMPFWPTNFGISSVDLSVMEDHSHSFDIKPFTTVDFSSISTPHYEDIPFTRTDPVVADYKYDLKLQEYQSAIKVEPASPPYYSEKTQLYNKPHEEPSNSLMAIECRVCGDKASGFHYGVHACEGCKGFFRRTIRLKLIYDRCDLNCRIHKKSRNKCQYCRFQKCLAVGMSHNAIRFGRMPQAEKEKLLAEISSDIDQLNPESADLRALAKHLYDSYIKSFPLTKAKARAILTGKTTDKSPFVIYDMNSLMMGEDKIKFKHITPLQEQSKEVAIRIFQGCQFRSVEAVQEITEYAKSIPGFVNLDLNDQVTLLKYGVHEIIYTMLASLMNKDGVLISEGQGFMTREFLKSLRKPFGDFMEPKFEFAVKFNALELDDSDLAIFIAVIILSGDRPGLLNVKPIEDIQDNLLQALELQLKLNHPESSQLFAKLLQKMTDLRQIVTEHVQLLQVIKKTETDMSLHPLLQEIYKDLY
T2 sequence (P19793 1-462 partner): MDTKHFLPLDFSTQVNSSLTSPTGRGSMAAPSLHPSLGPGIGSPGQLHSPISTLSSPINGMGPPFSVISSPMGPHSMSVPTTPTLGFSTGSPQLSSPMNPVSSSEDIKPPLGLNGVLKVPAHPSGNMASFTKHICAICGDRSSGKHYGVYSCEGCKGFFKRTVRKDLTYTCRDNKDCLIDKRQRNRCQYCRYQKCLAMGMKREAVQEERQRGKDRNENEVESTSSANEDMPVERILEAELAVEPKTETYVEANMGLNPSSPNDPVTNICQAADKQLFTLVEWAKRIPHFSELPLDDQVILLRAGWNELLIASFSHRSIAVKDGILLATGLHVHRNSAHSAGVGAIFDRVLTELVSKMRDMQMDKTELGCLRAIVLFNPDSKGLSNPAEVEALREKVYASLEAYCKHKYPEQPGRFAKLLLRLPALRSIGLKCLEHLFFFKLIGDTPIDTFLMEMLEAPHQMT

B1: ERRγ3: novel ERRγ isoform, nuclear receptor protein of 396 amino acids (SEQ ID NO: 2) lacking part of the DNA binding domain (protein, listed as Homo sapiens)
chain: MSNKDRHIDSSCSSFIKTEPSSPASLTDSVNHHSPGGSSDASGSYSSTMNGHQNGLDSPPLYPSAPILGGSGPVRKLYDDCSSTIVEDPQTKCEYMLNSMPKRLCLVCGDIASGYHYGVASCEACKAFFKRTIQGVRLDRVRGGRQKYKRRIDAENSPYLNPQLAQPAKKPYNKIVSHLLVAEPEKIYAMPDPTVPDSDIKALTTLCDLADRELVVIIGWAKHIPGFSTLSLADQMSLLQSAWMEILILGVVYRSLSFEDELVYADDYIMDEDQSKLAGLLDLNNAILQLVKKYKSMKLEKEEFVTLKAIALANSDSMHIEDVEAVQKLQDVLHEALQDYEAGQHMEDPRRAGKMLMTLPLLRQTSTKAVQHFYNIKLEGKVPMHKLFLEMLEAKV

How the values were obtained:
[1] = biological target: T1, ERRγ1; conditions: stated as known property; cited from earlier work
[2] = biological target: T2, PPARγ; test: Reporter gene assay, ERRγ3 coexisted with PPARγ, pGVP2-PPRE1 in CV-1 cells; type: cell-based; conditions: 10^−6 M rosiglitazone, FIG. 24
Procedure: Transfection was performed as follows: CV-1 cells were resuspended in DMEM supplemented with 10% fetal bovine serum, 2000 U/l of penicillin G, and 100 mg/l of streptomycin to a concentration of 2×10^5 cells/2.5 ml. This was then seeded to a 6-well plate at 2.5 ml per well, and incubated for 18-24 hours in a CO2 incubator at 37° C. and 5% CO2. 1 μg of each of the expression plasmids for the transcription factors, the luciferase reporter plasmid, and another luciferase reporter plasmid used for normalization of the measured values (pRL-TK), were dissolved in Opti-MEM (Gibco BRL), to a total of 150 μl. […] Luciferase activity was measured using the Dual-Luciferase™ Reporter Assay System (Promega). […] The protocol for measurement was as follows: 50 μl of Luciferase Assay Reagent II was added to each well, stirred for 0.3 seconds, and measured for one second. 50 μl of Stop&Glo™ Reagent was then added, stirred for 0.3 seconds, and measured for one second. The measured values for firefly luciferase activity were corrected by dividing by the value for the Renilla luciferase activity, the internal control. Average values and standard errors were calculated from triplicate samples.
The effect of ligands on the function of ERRγ3 in enhancing the transcriptional activation function of peroxisome proliferator activated receptor (PPAR) α, β, or γ was evaluated using the reporter gene assay (FIG. 24). […]

| Molecule | inhibition of the transcriptional activation function of ERRγ1 [1] | modifying effect on the transcriptional stimulation activity of PPARγ [2] |
| --- | --- | --- |
| 4-hydroxytamoxifen [reference compound] | inhibiting their transcriptional activation function | – |
| B1 | – | did not show any significant modifying effect |
